Consider 8 compounds from PMC5999033 (European journal of medicinal chemistry, 2018).

Where two headings read alike, the source gives them in different places.

Series [1] has as its target T1, FABP3 (Homo sapiens, UniProt P05413). Nature of the series: Direct ligand binding assay of fluorescent probes, FABP3.
Series [2] concerns the target T2, FABP5 (Homo sapiens, UniProt Q01469). Nature of the series: Direct ligand binding assay of fluorescent probes, FABP5.
Series [3] deals with T3, FABP7 (Homo sapiens, UniProt O15540). Nature of the series: Direct ligand binding assay of fluorescent probes, FABP7.
Series [4] addresses FABP4 (Homo sapiens, UniProt P15090). Nature of the series: FABP4 inhibition. To be noted: Fig. S5.
Series [5] can be described thus: Dynamic light scattering, colloidal aggregation. To be noted: 20 μM in PBS, 24°C. The format is physicochemical.
Series [6] has as its target T2, FABP5. To be noted: read-out: Kd towards FABP5; determined in a previous study; cited from earlier work.
For series [7], the target named is T1, FABP3. The following applies: read-out: Kd towards FABP3; determined in a previous study; cited from earlier work.
Series [8] addresses T3, FABP7. The following applies: read-out: Kd towards FABP7; determined in a previous study; cited from earlier work.
The subject of series [9] is formalin-induced mouse models. The following applies: cited from earlier work.

Chain of FABP4 (P15090 whole entry): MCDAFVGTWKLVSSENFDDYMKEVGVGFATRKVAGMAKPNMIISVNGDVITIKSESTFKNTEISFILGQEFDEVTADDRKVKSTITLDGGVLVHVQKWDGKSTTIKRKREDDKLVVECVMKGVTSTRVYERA
T3 sequence (O15540 whole entry): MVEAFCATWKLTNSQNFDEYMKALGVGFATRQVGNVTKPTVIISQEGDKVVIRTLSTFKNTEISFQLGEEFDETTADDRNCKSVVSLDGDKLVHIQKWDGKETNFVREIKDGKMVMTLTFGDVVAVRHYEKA
T2 sequence (Q01469 whole entry): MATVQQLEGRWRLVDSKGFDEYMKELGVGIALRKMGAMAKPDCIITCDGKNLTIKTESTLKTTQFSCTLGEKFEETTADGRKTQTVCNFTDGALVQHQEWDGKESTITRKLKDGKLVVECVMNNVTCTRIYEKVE
T1 sequence (P05413 whole entry): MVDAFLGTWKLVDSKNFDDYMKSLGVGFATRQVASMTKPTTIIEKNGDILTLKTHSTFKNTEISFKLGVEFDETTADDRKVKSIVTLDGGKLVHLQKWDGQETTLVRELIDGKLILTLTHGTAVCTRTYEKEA

As for `CN(C)c1cccc2c(S(=O)(=O)NCCCCCCCCCCC(=O)O)cccc12` [DAUDA, 11-[5-(Dimethylamino)-1-naphthalenesulfonyl-amino]undecanoic acid], the Kd in series [1] was 2.04 µM; in series [2], 2.56 µM.
Compound `O=S(=O)(O)c1cccc2cccc(Nc3ccccc3)c12` [ANS, 1-Anilinonaphthalene-8-sulfonic Acid] had a Kd in series [3] of 1.01 µM.
As to `COc1ccccc1[C@H]1[C@H](C(=O)O)[C@H](c2ccccc2OC)[C@H]1C(=O)OCC1c2ccccc2-c2ccccc21` (racemic) [Compound 4j, 9-Fluorenylmethyl α-3-hydroxycarbonyl-2,4-di(2-methoxylphenyl)cyclobutane-1-carboxylate], in [4], the FABP4 inhibition entry was “do not appreciably inhibit FABP4”.
As to `O=C(O)C1C(c2ccccc2)C(C(=O)O[C@@H]2CCCC[C@H]2c2ccccc2)C1c1ccccc1` (stereo partly drawn) [Compound 3l, 1-[(1R,2S)-2-Phenylcyclohexyl] α-3-hydroxycarbonyl-2,4-diphenylcyclobutane-1-carboxylate], in series [5], the “colloidal aggregation by DLS” value was “no evidence of colloidal aggregation”.
In the case of `CCCCCCC(CCCCCCCCCCC(=O)O)N(C)c1ccc([N+](=O)[O-])c2nonc12` (centres unmarked) [NBD-stearate, 12-N-methyl-(7-nitrobenz-2-oxa-1,3-diazo)aminostearic acid], the Kd is 0.16 µM in series [6], 0.018 µM in [7] and 0.22 µM in series [8].
In the case of `C#Cc1cccc(OC(=O)[C@H]2[C@@H](c3ccccc3)[C@H](C(=O)O)[C@@H]2c2ccccc2)c1` (racemic) [Compound 3f, 1-(3-Ethynylphenyl) α-3-hydroxycarbonyl-2,4-diphenylcyclobutane-1-carboxylate], the FABP4 inhibition entry in [4] was “do not appreciably inhibit FABP4”.
Regarding `COc1ccccc1[C@H]1[C@H](C(=O)O)[C@H](c2ccccc2OC)[C@H]1C(=O)Oc1cccc2ccccc12` (racemic) [Compound 4b, 1-Naphthyl α-3-hydroxycarbonyl-2,4-di(2-methoxylphenyl)cyclobutane-1-carboxylate], the FABP4 inhibition entry in series [4] is reported as “do not appreciably inhibit FABP4”.
For `COc1cc([C@H]2[C@H](C(=O)O[C@@H]3C[C@@H]4[C@@H](CN(C)C[C@@H]4C)[C@@H]3C)[C@H](c3ccc(O)c(OC)c3)[C@H]2C(=O)O[C@@H]2C[C@@H]3[C@@H](CN(C)C[C@@H]3C)[C@@H]2C)ccc1O` [(-)-incarvillateine], in series [9], the “analgesic and anti-inflammatory effects” value is “potent analgesic and anti-inflammatory effects”.
